For the assay, the target named is TBK1 (Homo sapiens (Human), UniProt Q9UHD2). As to the kind of experiment: TBK1 low ATP kinase assay (in vitro assay 1). The assay is classed as biochemical. As to conditions: in vitro assay 1, read-out: TBK1 low ATP kinase assay IC50.

SMILES strings stand for the structures.

Chain of TBK1 (Q9UHD2 whole entry): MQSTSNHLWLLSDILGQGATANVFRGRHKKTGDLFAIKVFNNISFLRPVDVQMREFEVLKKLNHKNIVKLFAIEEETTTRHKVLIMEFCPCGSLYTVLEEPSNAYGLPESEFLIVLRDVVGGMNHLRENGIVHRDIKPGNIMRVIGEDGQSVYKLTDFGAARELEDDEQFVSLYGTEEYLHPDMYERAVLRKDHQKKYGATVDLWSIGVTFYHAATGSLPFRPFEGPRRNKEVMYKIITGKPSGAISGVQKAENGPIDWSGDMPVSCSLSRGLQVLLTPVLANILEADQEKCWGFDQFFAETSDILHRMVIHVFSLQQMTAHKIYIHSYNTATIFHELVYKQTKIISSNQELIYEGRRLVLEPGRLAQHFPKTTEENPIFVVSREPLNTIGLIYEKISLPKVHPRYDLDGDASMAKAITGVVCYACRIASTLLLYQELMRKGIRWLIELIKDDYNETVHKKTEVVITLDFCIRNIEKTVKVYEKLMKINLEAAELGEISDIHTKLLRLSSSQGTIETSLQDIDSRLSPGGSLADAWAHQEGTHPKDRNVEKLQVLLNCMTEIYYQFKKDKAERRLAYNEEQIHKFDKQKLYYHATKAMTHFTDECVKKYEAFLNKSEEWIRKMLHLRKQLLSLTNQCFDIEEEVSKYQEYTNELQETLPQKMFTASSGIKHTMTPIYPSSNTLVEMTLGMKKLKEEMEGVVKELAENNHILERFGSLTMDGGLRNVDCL

Consider `CCOc1nccc(-c2ccc3nc(Nc4cc(CN5CCN(C(=O)CC6CC6)CC5)ccn4)[nH]c3c2)n1` [Example 26.01.05, 2-cyclopropyl-1-{4-[(2-{[6-(2-ethoxypyrimidin-4-yl)-1H-benzimidazol-2-yl]amino}pyridin-4-yl)methyl]piperazin-1-yl}ethanone], for which the half-maximal inhibitory concentration (IC50) is 14.1 nM.

Take `Nc1cc(-c2ccc3nc(Nc4cc(CN5CCN(C(=O)C6CC6)CC5)ccn4)[nH]c3c2)ccn1` [Example 138.03, {4-[(2-{[6-(2-aminopyridin-4-yl)-1H-benzimidazol-2-yl]amino}pyridin-4-yl)methyl]piperazin-1-yl}(cyclopropyl)methanone]: the IC50 was 4.3 nM.

In the case of `Cc1ncc(C)c(-c2ccc3nc(Nc4cc(CN5CCN(C(=O)CC(F)(F)F)CC5)ccn4)[nH]c3c2)n1` [Example 33.02, 1-{4-[(2-{[6-(2,5-dimethylpyrimidin-4-yl)-1H-benzimidazol-2-yl]amino}pyridin-4-yl)methyl]piperazin-1-yl}-3,3,3-trifluoropropan-1-one], the IC50 stood at 1590 nM.

Consider `O=C(CC(F)(F)F)N1CCN(Cc2ccnc(Nc3nc4ccc(-c5ncnc(NC6CCC6)c5F)cc4[nH]3)c2)CC1` [Example 194.02, 1-(4-{[2-({6-[6-(cyclobutylamino)-5-fluoropyrimidin-4-yl]-1H-benzimidazol-2-yl}amino)pyridin-4-yl]methyl}piperazin-1-yl)-3,3,3-trifluoropropan-1-one], for which the IC50 turned out to be 45.9 nM.

For `O=C(C1CC1)N1CCN(Cc2ccnc(Nc3nc4ccc(-c5cnc(Cl)cn5)cc4[nH]3)c2)CC1` [Example 140.03, {4-[(2-{[6-(5-chloropyrazin-2-yl)-1H-benzimidazol-2-yl]amino}pyridin-4-yl)methyl]piperazin-1-yl}(cyclopropyl)methanone], the half-maximal inhibitory concentration (IC50) was 290 nM.

With `COc1cncnc1-c1ccc2nc(Nc3cc(CN4CCN(S(=O)(=O)CCC(F)(F)F)CC4)ccn3)[nH]c2c1` [Example 35.01.09, 6-(5-methoxypyrimidin-4-yl)-N-[4-({4-[(3,3,3-trifluoropropyl)sulfonyl]piperazin-1-yl}methyl)pyridin-2-yl]-1H-benzimidazol-2-amine], the IC50 stood at 40.6 nM.

As to `Cc1ccnc(N2CCN(Cc3ccnc(Nc4nc5ccc(-c6nc(C)no6)cc5[nH]4)c3)CC2)c1` [Example 101.30, 6-(3-methyl-1,2,4-oxadiazol-5-yl)-N-(4-{[4-(4-methylpyridin-2-yl)piperazin-1-yl]methyl}pyridin-2-yl)-1H-benzimidazol-2-amine], the IC50 came out at 560 nM.

For `Cc1noc(-c2ccc3nc(Nc4cc(CN5CCN(c6ncncn6)CC5)ccn4)[nH]c3c2)n1` [Example 101.27, 6-(3-methyl-1,2,4-oxadiazol-5-yl)-N-(4-{[4-(1,3,5-triazin-2-yl)piperazin-1-yl]methyl}pyridin-2-yl)-1H-benzimidazol-2-amine], the 50% inhibitory concentration (IC50) is 350 nM.

As for `COc1c(C)ncnc1-c1ccc2nc(Nc3cc(C(C)N4CCN(C(=O)C5(C(F)(F)F)CC5)CC4)ccn3)[nH]c2c1` (stereo not drawn) [Example 83.05, {4-[(1R or IS)-1-(2-{[6-(5-methoxy-6-methylpyrimidin-4-yl)-1H-benzimidazol-2-yl]amino}pyridin-4-yl)ethyl]piperazin-1-yl}[1-(trifluoromethyl)cyclopropyl]methanone], the IC50 worked out at 2.9 nM.

Consider `COc1cncnc1-c1ccc2nc(Nc3cc(CN4CCN(C(=O)N(C)C)CC4)ccn3)[nH]c2c1` [Example 35.01.03, 4-[(2-{[6-(5-methoxypyrimidin-4-yl)-1H-benzimidazol-2-yl]amino}pyridin-4-yl)methyl]-N,N-dimethylpiperazine-1-carboxamide], for which the half-inhibitory concentration (IC50) turned out to be 59.1 nM.

In the case of `CC(C)(C)OC(=O)N1CCN(Cc2ccnc(Nc3nc4ccc(-c5c(F)cncc5Cl)cc4[nH]3)c2)CC1` [Example 132.01, tert-butyl 4-[(2-{[6-(3-chloro-5-fluoropyridin-4-yl)-1H-benzimidazol-2-yl]amino}pyridin-4-yl)methyl]piperazine-1-carboxylate], the IC50 amounted to 180 nM.

For `COc1cncnc1-c1ccc2nc(Nc3cc(C(C)N4CCN(C(=O)C5CCC5)CC4)ccn3)[nH]c2c1` (racemic) [Example 35.02.04, (rac)-cyclobutyl{4-[1-(2-{[6-(5-methoxypyrimidin-4-yl)-1H-benzimidazol-2-yl]amino}pyridin-4-yl)ethyl]piperazin-1-yl}methanone], the concentration for half-maximal inhibition (IC50) is 10.4 nM.

Take `COc1ccc(-c2ccc3nc(Nc4cc(CN5CCN(C(=O)OC(C)(C)C)CC5)ccn4)[nH]c3c2)cn1` [Example 13.01, tert-butyl 4-[(2-{[6-(6-methoxypyridin-3-yl)-1H-benzimidazol-2-yl]amino}pyridin-4-yl)methyl]piperazine-1-carboxylate]: the IC50 was 1250 nM.

Take `O=C(C1CC1)N1CCN(Cc2ccnc(Nc3nc4ccc(-c5ncnc6c5COC6)cc4[nH]3)c2)CC1` [Example 182.03, cyclopropyl{4-[(2-{[6-(5,7-dihydrofuro[3,4-d]pyrimidin-4-yl)-1H-benzimidazol-2-yl]amino}pyridin-4-yl)methyl]piperazin-1-yl}methanone]: the half-inhibitory concentration (IC50) came out at 136 nM.

For `O=C(CC(F)(F)F)N1CCN(Cc2ccnc(Nc3nc4ccc(-c5cnn(CC6CC6)c5)cc4[nH]3)c2)CC1` [Example 39.01.02, 1-(4-{[2-({6-[1-(cyclopropylmethyl)-1H-pyrazol-4-yl]-1H-benzimidazol-2-yl}amino)pyridin-4-yl]methyl}piperazin-1-yl)-3,3,3-trifluoropropan-1-one], the IC50 amounted to 5.89 nM.

Consider `COc1c(-c2ccc3nc(Nc4cc(CN5CCN(C(=O)C6(C(F)(F)F)CC6)CC5)ccn4)[nH]c3c2)ncnc1N(C)CC1CC1` [Example 110.03, [4-({2-[(6-{6-[(cyclopropylmethyl)(methyl)amino]-5-methoxypyrimidin-4-yl}-1H-benzimidazol-2-yl)amino]pyridin-4-yl}methyl)piperazin-1-yl][1-(trifluoromethyl)cyclopropyl]methanone], for which the IC50 turned out to be 52 nM.

For the compound `CC(C)(C)Cc1nc(-c2ccc3nc(Nc4cc(CN5CCN(c6ccccc6Cl)CC5)ccn4)[nH]c3c2)no1` [Example 22.02, N-(4-{[4-(2-chlorophenyl)piperazin-1-yl]methyl}pyridin-2-yl)-6-[5-(2,2-dimethylpropyl)-1,2,4-oxadiazol-3-yl]-1H-benzimidazol-2-amine], the IC50 came to 779 nM.

As to `CC(C)(C)OC(=O)N1CCN(Cc2ccnc(Nc3nc4ccc(-c5cc(C6=CCOCC6)ncn5)cc4[nH]3)c2)CC1` [Example 198.01, tert-butyl 4-{[2-({6-[6-(3,6-dihydro-2H-pyran-4-yl)pyrimidin-4-yl]-1H-benzimidazol-2-yl}amino)pyridin-4-yl]methyl}piperazine-1-carboxylate], the concentration for half-maximal inhibition (IC50) was determined as 43.8 nM.

Turning to `CC(C)Cc1nc(-c2ccc3nc(Nc4cc(CN5CCN(C(=O)OC(C)(C)C)CC5)ccn4)[nH]c3c2)n(C)n1` [Example 42.01, tert-butyl 4-{[2-({6-[1-methyl-3-(2-methylpropyl)-1H-1,2,4-triazol-5-yl]-1H-benzimidazol-2-yl}amino)pyridin-4-yl]methyl}piperazine-1-carboxylate], the IC50 amounted to 577 nM.

As to `CC(c1ccnc(Nc2nc3ccc(-c4cc(N5CCCC5)ncn4)cc3[nH]2)c1)N1CCN(C(=O)C2CC2)CC1` (single isomer, unassigned) [Example 117.02, cyclopropyl(4-{(1R or 1S)-1-[2-({6-[6-(pyrrolidin-1-yl)pyrimidin-4-yl]-1H-benzimidazol-2-yl}amino)pyridin-4-yl]ethyl}piperazin-1-yl)methanone], the IC50 is 0.33 nM.

For the compound `CC(c1ccnc(Nc2nc3ccc(-c4cn[nH]c4)cc3[nH]2)c1)N1CCN(C(=O)OC(C)(C)C)CC1` (single isomer, unassigned) [Example 57.01, tert-butyl 4-[(1R or 1S)-1-(2-{[6-(1H-pyrazol-4-yl)-1H-benzimidazol-2-yl]amino}pyridin-4-yl)ethyl]piperazine-1-carboxylate], the IC50 was found to be 7.83 nM.

`COc1cncnc1-c1ccc2nc(Nc3cc(C(C)N4CCN(C(=O)CC(F)(F)F)CC4)ccn3)[nH]c2c1` (single isomer, unassigned) [Example 35.03.01.A, 3,3,3-trifluoro-1-{4-[(1R or 1S)-1-(2-{[6-(5-methoxypyrimidin-4-yl)-1H-benzimidazol-2-yl]amino}pyridin-4-yl)ethyl]piperazin-1-yl}propan-1-one]: the IC50 was 3.85 nM.

As for `COc1cc(-c2ccc3nc(Nc4cc(CN5CCN(C(=O)CC6CC6)CC5)ccn4)[nH]c3c2)c(F)cn1` [Example 03.04, 2-cyclopropyl-1-{4-[(2-{[6-(5-fluoro-2-methoxypyridin-4-yl)-1H-benzimidazol-2-yl]amino}pyridin-4-yl)methyl]piperazin-1-yl}ethanone], the concentration for half-maximal inhibition (IC50) worked out at 288 nM.

In the case of `CC(C)Oc1cc(-c2ccc3nc(Nc4cc(CN5CCN(C(=O)CC(F)(F)F)CC5)ccn4)[nH]c3c2)ncn1` [Example 160.02, 3,3,3-trifluoro-1-(4-{[2-({6-[6-(propan-2-yloxy)pyrimidin-4-yl]-1H-benzimidazol-2-yl}amino)pyridin-4-yl]methyl}piperazin-1-yl)propan-1-one], the IC50 turned out to be 13 nM.

As for `Cc1nccc(-c2ccc3nc(Nc4cc(C(C)N5CCN(C(=O)CC6CC6)CC5)ccn4)[nH]c3c2)n1` (single isomer, unassigned) [Example 24.05.03.B, 2-cyclopropyl-1-{4-[(1S or 1R)-1-(2-{[6-(2-methylpyrimidin-4-yl)-1H-benzimidazol-2-yl]amino}pyridin-4-yl)ethyl]piperazin-1-yl}ethanone], the IC50 was found to be 13.8 nM.

In the case of `CCOc1nccc(-c2ccc3nc(Nc4cc(CN5CCN(C(=O)CC(F)(F)F)CC5)ccn4)[nH]c3c2)n1` [Example 26.01.03, 1-{4-[(2-{[6-(2-ethoxypyrimidin-4-yl)-1H-benzimidazol-2-yl]amino}pyridin-4-yl)methyl]piperazin-1-yl}-3,3,3-trifluoropropan-1-one], the 50% inhibitory concentration (IC50) amounted to 13 nM.

Take `Cc1cc(-c2ccc3nc(Nc4cc(C(C)N5CCN(C(=O)CC(F)(F)F)CC5)ccn4)[nH]c3c2)n(C)n1` (single isomer, unassigned) [Example 89.02, 1-{4-[(1R or 1S)-1-(2-{[6-(1,3-dimethyl-1H-pyrazol-5-yl)-1H-benzimidazol-2-yl]amino}pyridin-4-yl)ethyl]piperazin-1-yl}-3,3,3-trifluoropropan-1-one]: the IC50 came to 450 nM.

As a reminder, the IC50 is the concentration that gives 50% inhibition.

The record behind these values is patent US10894784B2, “Heteroarylbenzimidazole compounds” (BAYER PHARMA AKTIENGESELLSCHAFT, priority 2015, dated 2021).
